The results in this text go back to paper PMC10487625, “Betaxolol as a Potent Inhibitor of NDM-1-Positive E. coli That Synergistically Enhances the Anti-Inflammatory Effect in Combination with Meropenem” (International Journal of Molecular Sciences, 2023).

This assay deals with T1, New Delhi metallo-β-lactamase (NDM-1) (Escherichia coli, UniProt E5KIY2).
T1 construct: gene blaNDM-1; recombinant NDM-1 purified from E. coli BL21(DE3)-pET-32a(+)-blaNDM-1
The assay can be described thus: nitrocefin hydrolysis assay with purified NDM-1, OD492. In kind it is biochemical.

T1 sequence (E5KIY2 29-270 limits assumed): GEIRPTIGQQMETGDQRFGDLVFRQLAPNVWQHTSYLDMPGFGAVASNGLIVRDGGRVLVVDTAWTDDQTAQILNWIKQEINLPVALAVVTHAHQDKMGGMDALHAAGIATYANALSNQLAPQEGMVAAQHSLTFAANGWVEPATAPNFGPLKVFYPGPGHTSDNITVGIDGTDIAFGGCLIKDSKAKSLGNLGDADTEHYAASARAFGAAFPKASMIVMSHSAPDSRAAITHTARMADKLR

A word on the IC50: it is the concentration that gives 50% inhibition. Take `CC(C)NCC(O)COc1ccc(CCOCC2CC2)cc1` (stereo not shown) [BET, betaxolol]: the IC50 was 19.3 ± 0.9 µM.
